{"source": "paper PMC6481325", "about": "“Novel N,N-dialkyl cyanocinnamic acids as monocarboxylate transporter 1 and 4 inhibitors” (Oncotarget, 2019)", "format_in_all_cases": "cell-based", "key": {"MDA-MB-231 cells": {"tested_on": "MDA-MB-231 cells", "assay": "SRB cell proliferation inhibition assay, MDA-MB-231", "settings": "72 hours, average ± sem", "experimental": "(§1) MDA-MB-231 cells (ATCC, 2015) were grown in DMEM supplemented with 10% FBS and penicillin-streptomycin (50 U/ml, 50 μg/ml, Invitrogen). WiDr cells (ATCC, 2017) were cultured in MEM medium supplemented with 10% FBS (Atlanta Biologicals) and penicillin-streptomycin (50 U/ml, 50 μg/ml). For in vitro experiments, after seeding, cells were incubated at 37°C in 5% CO2 for 18–24 hours before the addition of test compounds.\n(§2) Cells (5 × 10^4 cells/mL) were cultured in 48-well plates. Test compounds were dissolved in DMSO (final concentration of DMSO is <0.1%) and were added to culture wells at various concentrations in replicate and incubated for 72 hours. Growth medium was removed and the wells were washed with PBS and dried. SRB (0.5% in 1% acetic acid) was added to the wells and incubated for 30–45 minutes. The wells were washed 3 times with 1% acetic acid and dried. The cellular protein was dissolved in trizma base (10 mM, pH 10.2) and absorbance was recorded at 540 nm. Percent survival was calculated using the formula %Survival=Abstest compound/Abscontrol×100 ."}, "MCT4": {"molecular_target": "T1, MCT4 (Homo sapiens, UniProt O15427)", "T1 construct": "These cells predominantly express MCT4 as confirmed by Western blot and quantitative PCR analysis; host or cells: MDA-MB-231", "T1 sequence (O15427 2-465 limits assumed)": "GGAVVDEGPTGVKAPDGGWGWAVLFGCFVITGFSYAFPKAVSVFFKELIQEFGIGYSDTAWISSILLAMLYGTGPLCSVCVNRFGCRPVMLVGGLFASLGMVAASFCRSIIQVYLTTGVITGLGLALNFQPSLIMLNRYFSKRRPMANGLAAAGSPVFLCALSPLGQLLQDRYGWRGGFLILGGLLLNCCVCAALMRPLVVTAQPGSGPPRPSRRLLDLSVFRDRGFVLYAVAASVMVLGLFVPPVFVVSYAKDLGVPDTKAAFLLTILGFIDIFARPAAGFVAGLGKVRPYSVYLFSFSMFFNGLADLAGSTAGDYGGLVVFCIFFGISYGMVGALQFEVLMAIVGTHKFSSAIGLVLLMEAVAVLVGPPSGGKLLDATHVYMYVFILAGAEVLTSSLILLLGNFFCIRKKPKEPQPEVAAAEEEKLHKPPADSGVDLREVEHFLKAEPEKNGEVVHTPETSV", "T1 sequence (P35613 140-385 partner limits assumed)": "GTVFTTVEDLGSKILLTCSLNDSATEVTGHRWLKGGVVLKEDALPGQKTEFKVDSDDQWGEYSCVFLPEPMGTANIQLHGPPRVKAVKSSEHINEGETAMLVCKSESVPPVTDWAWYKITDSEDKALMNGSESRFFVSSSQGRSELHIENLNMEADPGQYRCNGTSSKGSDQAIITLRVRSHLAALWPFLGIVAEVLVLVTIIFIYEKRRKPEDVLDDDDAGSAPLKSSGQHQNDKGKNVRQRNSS", "assay": "L-[14C]-lactate uptake study in MCT4 expressing MDA-MB-231 cells", "settings": "read-out: MCT4 IC50", "experimental": "In this study, an L-[^14C]-lactate based transport assay was developed by us to quantify MCT4 transport and its inhibition by test compounds. […] For the MCT4 transport assay, the pH of HEPES buffer with L-[^14C]-lactate was adjusted to 7.0 such that lactate influx into the cells was aided by the pH gradient. […] Test compounds were diluted to working concentration in HEPES buffer (140 mM NaCl, 5 mM KCl, 2 mM CaCl2, 2 mM MgCl2, 10 mM HEPES, pH 7.0) containing 3 μM L-[^14C]-lactate (Perkin Elmer) and 2 μM L-lactate. […] HEPES buffer was replaced with 250 μL test solution. After 1 hour, media was replaced with 500 μL ice-cold stop buffer (0.1 mM CHC solution in HBS, pH 7.4) and the plates were placed on ice. Cells were washed twice with ice-cold stop buffer and solubilized using 250 μL of 0.1 M NaOH in 5% Triton-X (Millipore Sigma). A 150 μL aliquot from each well was added to 4 mL EcoLite(+)™ scintillation fluid (MP Biomedicals) and radioactivity was determined by scintillation spectrometry. Inhibition by each test solution was calculated as a percentage of the maximum control uptake. CHC and dimethylsulfoxide (DMSO) were used as controls. […]"}, "WiDr cells": {"tested_on": "WiDr cells", "assay": "SRB cell proliferation inhibition assay, WiDr", "settings": "Homo sapiens, 72 hours, average ± sem", "experimental": "as §1, §2"}}, "note": "Where two headings read alike, the source gives them in different places."}
{"smiles": "COc1cc(N(c2ccccc2)c2ccccc2)ccc1/C=C(\\C#N)C(=O)O", "note": "[Phenyl (9)]", "values": [{"measurement": "SRB IC50", "setting": "MDA-MB-231 cells", "result": "did not show any activity"}, {"measurement": "IC50", "setting": "MDA-MB-231 cells; Homo sapiens", "result": "> 25000", "unit": "nM"}, {"measurement": "IC50", "setting": "MCT4; Figure 1A and text, lactate uptake", "result": 23, "unit": "nM"}, {"measurement": "IC50", "setting": "MCT4; Supplementary Table 1, average ± SEM", "result": "18 ± 8", "unit": "nM"}, {"measurement": "IC50", "setting": "WiDr cells", "result": "4200 ± 400", "unit": "nM"}]}
